Measured values: patent publication US20250177372A1, “LIQUID FORMULATIONS OF INDACATEROL AND GLYCOPYRRONIUM” (AeroRx Therapeutics, Inc., priority 2022, published 2025)
Counter-ions that a name gives are not always drawn.

How the values were obtained:
Type in all cases: physicochemical
[1] = Aqueous solubility of indacaterol and indacaterol maleate in water (orbital shaker, UV-Vis); conditions: for pH after dissolution / Solubility: water, initial pH 7.1; for Solubility: shaken 12 hours, UV-Vis
Description: Solubility studies of indacaterol and indacaterol maleate were performed using an orbital shaker method. Excess indacaterol was placed in a glass vial with water. The initial pH of the water was 7.1. Samples were shaken for 12 hours to ensure equilibrium was reached. After the 12 hour period, the vial was removed from the shaker and allowed to settle for 30 minutes. Then, the sample was filtered using a 0.2 μM polyvinylidene fluoride (PVDF) syringe filter; the initial 0.5 mL of filtrate was discarded. The pH was then measured and the concentration of the indacaterol was evaluated by UV-Vis.

[2] = Forced degradation study of indacaterol (RP-HPLC impurities); conditions: for Total Impurities* (%): includes 2% process-related impurity
Description: A degraded sample panel was prepared to identify indacaterol degradation pathways and products. Stress conditions are outlined in Table 1.
One of 6N HCl, 6N NaOH, or 30% H2O2 (aqueous) were added to a suitable volume of 100 μg/mL indacaterol and diluted with water:methanol (50:50, v:v) to achieve a final indacaterol concentration of 10 μg/mL. Samples were stored at ambient temperature. At specified time points, acidic and basic hydrolysis (1 N HCl and 1 N NaOH, respectively) samples were neutralized (H2O2 samples were not quenched) and reversed-phase high performance liquid chromatography (RP-HPLC) was used to quantitate indacaterol impurities. All samples were diluted to 5 μg/mL prior to RP-HPLC analysis. Method parameters are outlined in Table 2.
Total impurities (process-related and product-related) of the indacaterol forced degradation study samples are presented in Table 3. Forced degradation impurity peaks were identified based on their retention time relative (RRT) to the indacaterol peak. Impurity peaks already present in the indacaterol (control group at T0; total peak area approximately 2%) were considered process-related, while additional peaks formed after the degradation were considered product-related.

[3] = Aqueous solubility of indacaterol with varying pH in citrate buffer (orbital shaker, UV-Vis); conditions: aqueous citrate buffer 5 mM
Description: Solubility studies of indacaterol in solutions of varying pH were performed using an orbital shaker method. Excess indacaterol was placed in a glass vial with an aqueous citrate buffer (5 mM; prepared from citric acid and NaOH). Samples were shaken for 12 to 24 hours to ensure equilibrium was reached before checking and adjusting the pH (using 1 M HCl and NaOH) and placing samples back into the orbital shaker for an additional 12 hours. This process was repeated up to two times or until the desired pH was obtained. After the desired pH was reached, the vial was removed from the shaker and allowed to settle for 30 minutes. Then, the sample was filtered using a 0.2 μM PVDF syringe filter; the initial 0.5 mL of filtrate was discarded. The pH was then measured and the concentration of the indacaterol was evaluated by UV-Vis.

[4] = Acidic Hydrolysis (1M HCl), 15 h, ambient temperature
[5] = Basic Hydrolysis (1M NaOH), 15 h, ambient temperature

CCc1cc2c(cc1CC)CC(NC[C@H](O)c1ccc(O)c3[nH]c(=O)ccc13)C2 [Indacaterol maleate, indacaterol maleate]
pH after dissolution [1]: 3.30
Solubility [1]: 230 µg/mL

CCc1cc2c(cc1CC)CC(NC[C@H](O)c1ccc(O)c3[nH]c(=O)ccc13)C2 [Indacaterol, (R)-5-[2-(5,6-Diethylindan-2-ylamino)-1-hydroxyethyl]-8hydroxy-1H-quinolin-2-one]
Total Peak Area (%) ([2]; Acidic Hydrolysis (1M HCl), 15 h): 99.79%
Indacaterol (%) [2, 4]: 92.54%
Total Impurities* (%) [2, 4]: 7.25%
Indacaterol (%), Change in % peak ([2]; Acidic Hydrolysis (1M HCl), 15 h vs T0): −3.27%
Indacaterol (%) ([2]; Acidic Hydrolysis (1M HCl), T0): 95.81%
Total Peak Area (%) ([2]; Acidic Hydrolysis (1M HCl), T0): 99.82%
Total Impurities* (%) ([2]; Acidic Hydrolysis (1M HCl), T0): 4.01%
Total Peak Area (%) ([2]; Basic Hydrolysis (1M NaOH), 15 h): 99.75%
Indacaterol (%) [2, 5]: 92.06%
Total Impurities* (%) [2, 5]: 7.69%
Indacaterol (%), Change in % peak ([2]; Basic Hydrolysis (1M NaOH), 15 h vs T0): −3.76%
Indacaterol (%) ([2]; Basic Hydrolysis (1M NaOH), T0): 95.82%
Total Peak Area (%) ([2]; Basic Hydrolysis (1M NaOH), T0): 99.81%
Total Impurities* (%) ([2]; Basic Hydrolysis (1M NaOH), T0): 3.99%
Total Peak Area (%) ([2]; Control, T0): 99.85%
Indacaterol (%) ([2]; Control, T0, 10 μg/mL in MeOH:H2O (50:50), ambient temperature): 98.04%
Total Impurities* (%) ([2]; Control, T0): 1.81%
Indacaterol (%) ([2]; Oxidation (1.2% H2O2), 7 h): 97.03%
Total Peak Area (%) ([2]; Oxidation (1.2% H2O2), 7 h): 99.89%
Total Impurities* (%) ([2]; Oxidation (1.2% H2O2), 7 h): 2.77%
Indacaterol (%) ([2]; Oxidation (1.2% H2O2), 29 h): 90.76%
Total Peak Area (%) ([2]; Oxidation (1.2% H2O2), 29 h): 99.59%
Total Impurities* (%) ([2]; Oxidation (1.2% H2O2), 29 h): 8.83%
Total Impurities* (%) ([2]; Oxidation (1.2% H2O2), 29 h, listed as indacaterol): approximately 9%
Indacaterol (%), Change in % peak ([2]; Oxidation (1.2% H2O2), 29 h vs 7 h): −6.27%
degradation of indacaterol samples in aqueous solutions over time (FIG. 1) ([2]; forced degradation experiment, staggered chromatogram): minimal degradation
dependence of indacaterol solubility on pH [3]: increase with decreasing pH
solubility in water ([1]; water at pH 7.1): insoluble
pH after dissolution [1]: 6.20
Solubility [1]: < 1 µg/mL
